# According to ChEMBL document CHEMBL3217485, “Understanding and overcoming aminoglycoside resistance caused by N-6'-acetyltransferase” (Medchemcomm, 2012):
# Legend:
# [1] = Inhibition of AAC(6')-ly (unknown origin) in presence of ribostamycin
# [2] = Inhibition of AAC(6')-ly (unknown origin) in presence of kanamycin A
# [3] = Activity at AAC(6')-li (unknown origin)
# Escherichia coli = assay: Antibacterial activity against Escherichia coli ATCC 25922; type: functional
# [4] = Binding affinity to biotinylated Escherichia coli 16S rRNA A-site
# [5] = Ratio of Kcat to Km for AAC(6')-li (unknown origin)
# [6] = Binding affinity to AAC(6')-lb (unknown origin)
# [7] = Inhibition of AAC(6')-lb (unknown origin)
smiles,measurement,setting,value
N=C(N)N[C@H]1[C@@H](O[C@H]2[C@H](O[C@@H]3O[C@H](CO)[C@@H](O)[C@H]3O)[C@@H](O)[C@H](NC(=N)N)C[C@@H]2NC(=N)N)O[C@H](CNC(=O)CCN)[C@@H](O)[C@@H]1O,Kii,[1],92 µM
same,Kis,[1],17 µM
same,Kii,[2],23 µM
same,Kis,[2],31 µM
NC[C@H]1O[C@H](O[C@H]2[C@H](OCC(=O)NCCCCCNC(=O)CO[C@@H]3[C@@H](O)[C@H](N)C[C@H](N)[C@H]3O[C@H]3O[C@H](CN)[C@@H](O)[C@H](O)[C@H]3N)[C@@H](O)[C@H](N)C[C@@H]2N)[C@H](N)[C@@H](O)[C@@H]1O,Km,[3],83.6 µM
same,kcat,[3],1.89 s⁻¹
same,MIC,Escherichia coli,125 µM
same,Kd,[4],800 nM
same,kcat/Km,[5],2.26 ×10⁴ /M/s
CC(C)(COP(=O)(O)OP(=O)(O)OC[C@H]1O[C@@H](n2cnc3c(N)ncnc32)[C@H](O)[C@@H]1OP(=O)(O)O)[C@@H](O)C(=O)NCCC(=O)NCCSCC(=O)NCc1ccc(O[C@H]2C[C@H](N)C[C@@H]2N)cc1,Kd,[6],950 nM
same,Ki,[7],500 nM
